The text below walks through data of paper PMC8617031, “Development of a BCL-xL and BCL-2 dual degrader with improved anti-leukemic activity,” (Nature Communications, 2021).

The test system of the data set is Kasumi-1 cells. The data set is described as follows: Viability (MTS) of Kasumi-1 AML cells. The class given is cell-based, human. The settings on record: Fig. 7a.

The structures appear in SMILES notation. Where “and” joins values, the source holds several entries; their conditions need not be identical. Identical values can stand only once.

Regarding `Cc1c(-c2c(-c3ccc(F)o3)sc3ncnc(O[C@H](Cc4ccccc4OCc4ccnn4CC(F)(F)F)C(=O)O)c23)ccc(OCCN2CCN(C)CC2)c1Cl` [S63845], the “Luminescence (raw plate reading)” value was 585765 and 593361 and 588702 and 615617 (3.90625 nM (plate column 2)); 614886 and 587762 and 581843 and 642033 (7.8125 nM (plate column 3)); 585793 and 568144 and 557931 and 596587 (15.625 nM (plate column 4)); 583012 and 572945 and 570605 and 624151 (31.25 nM (plate column 5)); 545426 and 545383 and 550949 and 588219 (62.5 nM (plate column 6)); 511944 and 516519 and 502413 and 546675 (125 nM (plate column 7)). Further, the “Luminescence (raw plate reading)” value runs as follows: (250 nM (plate column 8)) 434681 and 438403 and 429749 and 470053; (500 nM (plate column 9)) 365024 and 363596 and 364210 and 384218; (1000 nM (plate column 10)) 263752 and 271433 and 266762 and 285013; (2000 nM = 2U (plate column 11)) 165813 and 178184 and 172580 and 186041; (4000 nM = 4U (plate column 12)) 112826 and 107734 and 101511 and 111059. The “Luminescence normalised to mean of the 0 concentration wells (= 100), viability” value (shortened to “Luminescence normalised to mean”) (3.90625 (nM)) was 85.5833 and 86.6931 and 86.0124 and 89.9448; the “Luminescence normalised to mean” value (7.8125 (nM)) was 89.838 and 85.875 and 85.0102 and 93.8043; the “Luminescence normalised to mean” value (15.625 (nM)) is 85.5874 and 83.0087 and 81.5166 and 87.1644; the “Luminescence normalised to mean” value (31.25 (nM)) is 85.181 and 83.7102 and 83.3683 and 91.1917; the “Luminescence normalised to mean” value (62.5 (nM)) was 79.6895 and 79.6832 and 80.4965 and 85.9418; the “Luminescence normalised to mean” value (125 (nM)) is 74.7976 and 75.4661 and 73.4051 and 79.872. Besides, the “Luminescence normalised to mean” value (250 (nM)) was 63.5091 and 64.0529 and 62.7885 and 68.6771; the “Luminescence normalised to mean” value (500 (nM)) was 53.3319 and 53.1232 and 53.2129 and 56.1362; the “Luminescence normalised to mean” value (1000 (nM)) was 38.5355 and 39.6577 and 38.9753 and 41.6419; the “Luminescence normalised to mean” value (2000 (nM, 2U)) is 24.2261 and 26.0336 and 25.2148 and 27.1815; the “Luminescence normalised to mean” value (4000 (nM, 4U)) was 16.4845 and 15.7405 and 14.8313 and 16.2263. Further, the half-maximal inhibitory concentration (IC50) – broadly, the concentration that inhibits the measured activity by half – (72 h, read-out: IC50, viability of Kasumi-1 AML cells) was 527 nM.
